Laboratory results taken from ChEMBL document CHEMBL4385611, “Difluoromethylene at the γ-Lactam α-Position Improves 11-Deoxy-8-aza-PGE1 Series EP4 Receptor Binding and Activity: 11-Deoxy-10,10-difluoro-8-aza-PGE1 Analog (KMN-159) as a Potent EP4 Agonist” (J Med Chem, 2019).
pEC50, pKi: −log10 of the molar value.

What was measured:
[1] = biological target: T1, Prostaglandin E2 receptor EP4 subtype (Homo sapiens, UniProt P35408); assay: Displacement of [3H]PGE2 from human recombinant EP4 receptor expressed in HEK293 cell membranes after 120 mins by liquid scintillation counting method
T1 sequence (P35408 whole entry): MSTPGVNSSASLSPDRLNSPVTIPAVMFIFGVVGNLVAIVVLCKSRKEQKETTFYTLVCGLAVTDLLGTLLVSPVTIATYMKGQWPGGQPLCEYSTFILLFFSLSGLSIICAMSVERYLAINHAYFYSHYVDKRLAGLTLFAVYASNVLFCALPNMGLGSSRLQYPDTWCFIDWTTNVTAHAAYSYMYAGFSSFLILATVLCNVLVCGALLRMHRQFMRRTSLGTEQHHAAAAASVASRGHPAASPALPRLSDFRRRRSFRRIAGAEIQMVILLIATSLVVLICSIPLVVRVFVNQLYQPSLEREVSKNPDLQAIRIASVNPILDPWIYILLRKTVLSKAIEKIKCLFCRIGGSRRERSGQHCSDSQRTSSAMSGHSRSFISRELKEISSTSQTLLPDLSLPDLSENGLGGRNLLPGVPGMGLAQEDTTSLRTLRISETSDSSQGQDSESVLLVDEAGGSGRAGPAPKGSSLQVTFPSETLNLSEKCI

[2] = biological target: T2, Prostaglandin E2 receptor EP2 subtype (Homo sapiens, UniProt P43116); assay: Agonist activity at human EP2 receptor expressed in HEK293T/17 cells assessed as increase in intracellular cAMP level incubated for 30 mins by ELISA; format: functional, cell-based
T2 sequence (P43116 whole entry): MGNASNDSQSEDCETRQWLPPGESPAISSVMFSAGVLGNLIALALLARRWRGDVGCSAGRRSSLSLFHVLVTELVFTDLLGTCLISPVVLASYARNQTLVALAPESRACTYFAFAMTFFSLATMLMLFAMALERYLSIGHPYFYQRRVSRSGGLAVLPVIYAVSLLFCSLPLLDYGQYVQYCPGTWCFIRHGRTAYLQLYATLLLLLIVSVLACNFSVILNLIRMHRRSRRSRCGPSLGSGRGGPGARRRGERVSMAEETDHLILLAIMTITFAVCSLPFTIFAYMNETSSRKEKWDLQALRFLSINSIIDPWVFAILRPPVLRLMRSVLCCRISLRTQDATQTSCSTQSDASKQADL

[3] = biological target: T1, Prostaglandin E2 receptor EP4 subtype; assay: Agonist activity at human EP4 receptor expressed in HEK293T/17 cells assessed as increase in GalphaS-mediated CREB activation measured after 6 to 24 hrs by SEAP reporter gene-based chemiluminescence assay; format: functional, cell-based
[4] = biological target: T2, Prostaglandin E2 receptor EP2 subtype; assay: Agonist activity at human EP2 receptor expressed in HEK293T/17 cells assessed as increase in GalphaS-mediated CREB activation measured after 6 to 24 hrs by SEAP reporter gene-based chemiluminescence assay; format: functional, cell-based
[5] = biological target: T2, Prostaglandin E2 receptor EP2 subtype; assay: Agonist activity at human EP2 receptor expressed in HEK293T/17 cells assessed as increase in intracellular cAMP level at 10 uM incubated for 30 mins by ELISA relative to control; format: functional, cell-based
[6] = biological target: T2, Prostaglandin E2 receptor EP2 subtype; assay: Displacement of [3H]PGE2 from human recombinant EP2 receptor expressed in HEK293 cell membranes after 120 mins by liquid scintillation counting method
[7] = biological target: T3, Prostaglandin E2 receptor EP3 subtype (Homo sapiens, UniProt P43115); assay: Displacement of [3H]PGE2 from human recombinant EP3 receptor expressed in HEK293 cell membranes after 120 mins by liquid scintillation counting method
T3 sequence (P43115 whole entry): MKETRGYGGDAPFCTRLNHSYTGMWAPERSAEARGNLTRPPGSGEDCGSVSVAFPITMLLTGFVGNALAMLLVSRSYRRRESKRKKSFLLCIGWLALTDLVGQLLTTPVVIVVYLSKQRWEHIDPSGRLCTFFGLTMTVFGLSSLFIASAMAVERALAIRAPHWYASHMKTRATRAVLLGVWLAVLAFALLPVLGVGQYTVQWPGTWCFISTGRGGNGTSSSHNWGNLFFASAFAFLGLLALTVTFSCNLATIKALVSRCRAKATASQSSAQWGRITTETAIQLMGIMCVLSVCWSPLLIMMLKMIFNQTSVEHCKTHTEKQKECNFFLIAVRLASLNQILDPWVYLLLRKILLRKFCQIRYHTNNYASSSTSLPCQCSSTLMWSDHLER

[8] = biological target: T1, Prostaglandin E2 receptor EP4 subtype; assay: Agonist activity at human EP4 receptor expressed in HEK293T/17 cells assessed as increase in intracellular cAMP level incubated for 30 mins by ELISA; format: functional, cell-based
[9] = biological target: T2, Prostaglandin E2 receptor EP2 subtype; assay: Agonist activity at human EP2 receptor expressed in HEK293T/17 cells assessed as increase in GalphaS-mediated CREB activation at 10 uM measured after 6 to 24 hrs by SEAP reporter gene-based chemiluminescence assay relative to control; format: functional, cell-based

pEC50 [8] | Compound | pKi [1] | pEC50 [2] | pEC50 [3] | pEC50 [4] | Activity [5] | pKi [6] | pKi [7] | Activity [9]
 | COCc1cccc(C[C@H](O)/C=C/[C@H]2[C@H](O)CC(=O)[C@@H]2CCSCCCC(=O)O)c1 | 9.40 | 5.00 | 11.00 | 6.21 | < 50% |  |  | 
9.46 | CCCCC[C@H](O)/C=C/[C@H]1CC(F)(F)C(=O)N1CCCCCCC(=O)O | 9.70 | < 5.00 | 10.68 | 5.64 | < 50% | 6.48 | 6.46 | 
 | CCCCC[C@H](O)/C=C/[C@H]1CCC(=O)N1CCCCCCC(=O)O | 8.79 | < 5.00 | 10.19 | < 5.00 | < 50% | 5.84 | 5.93 | < 50%
